# Data published in ChEMBL document CHEMBL3885881, “DrugMatrix”.
# Species: Rattus norvegicus
# Assay: DrugMatrix - Regimen: Daily Repeat
# Type: toxicity, organism-based, Sprague-Dawley
# Parameters: regimen Daily Repeat, gender Male, age 6-8 weeks
# Settings: in vivo, po, route oral GAVAGE, vehicle 100 % WATER; for ABSOLUTE BASOPHIL / ABSOLUTE EOSINOPHIL / ABSOLUTE LYMPHOCYTE / ABSOLUTE MONOCYTE / ABSOLUTE SEGMENTED NEUTROPHIL / BASOPHIL / EOSINOPHIL / ERYTHROCYTE COUNT / HEMATOCRIT / HEMOGLOBIN / LEUKOCYTE COUNT / LYMPHOCYTE / MEAN CORPUSCULAR HEMOGLOBIN / MEAN CORPUSCULAR HEMOGLOBIN CONCENTRATION / MEAN CORPUSCULAR VOLUME / MONOCYTE / NEUTROPHIL / NUCLEATED RED BLOOD CELLS / PLATELET COUNT: tissue Blood; for ALANINE AMINOTRANSFERASE / ALBUMIN / ALKALINE PHOSPHATASE / ASPARTATE AMINOTRANSFERASE / BLOOD UREA NITROGEN / CARBON DIOXIDE / CHLORIDE / CHOLESTEROL / CREATINE PHOSPHOKINASE / CREATININE / GLUCOSE / LACTATE DEHYDROGENASE / LIPASE / PHOSPHORUS / POTASSIUM / SODIUM / TOTAL BILIRUBIN / TOTAL PROTEIN / URIC ACID: tissue Plasma
# [1] = 0 mg/kg, 72 h, dose level Control, time 3 day
# [2] = 0 mg/kg, 120 h, dose level Control, time 5 day
# [3] = 60 mg/kg, 72 h, dose level Low, time 3 day
# [4] = 60 mg/kg, 120 h, dose level Low, time 5 day
smiles,measurement,setting,value
ClC(Cl)Cl [CHLOROFORM],ABSOLUTE BASOPHIL,[1],0 CELLS/uL
same,ABSOLUTE EOSINOPHIL,[1],86.33 CELLS/uL
same,ABSOLUTE LYMPHOCYTE,[1],12090.17 CELLS/uL
same,ABSOLUTE MONOCYTE,[1],166.67 CELLS/uL
same,ABSOLUTE SEGMENTED NEUTROPHIL,[1],1090.17 CELLS/uL
same,BASOPHIL,[1],0%
same,EOSINOPHIL,[1],0.67%
same,ERYTHROCYTE COUNT,[1],5.57 x10E6/uL
same,HEMATOCRIT,[1],35.33%
same,HEMOGLOBIN,[1],13.83 G/DL
same,LEUKOCYTE COUNT,[1],13.43 x10E3/uL
same,LYMPHOCYTE,[1],89.83%
same,MEAN CORPUSCULAR HEMOGLOBIN,[1],24.88 pg
same,MEAN CORPUSCULAR HEMOGLOBIN CONCENTRATION,[1],39.15 G/DL
same,MEAN CORPUSCULAR VOLUME,[1],63.52 fL
same,MONOCYTE,[1],1.17%
same,NEUTROPHIL,[1],8.33%
same,NUCLEATED RED BLOOD CELLS,[1],0 /100WBC
same,PLATELET COUNT,[1],1181.33 x10E3/uL
same,ALANINE AMINOTRANSFERASE,[1],48.33 u/L
same,ALBUMIN,[1],4.1 G/DL
same,ALKALINE PHOSPHATASE,[1],395 u/L
same,ASPARTATE AMINOTRANSFERASE,[1],81.83 u/L
same,BLOOD UREA NITROGEN,[1],15.83 mg/dL
same,CARBON DIOXIDE,[1],24.17 mmol/L
same,CHLORIDE,[1],103.83 MEQ/L
same,CHOLESTEROL,[1],63.67 mg/dL
same,CREATINE PHOSPHOKINASE,[1],372.83 u/L
same,CREATININE,[1],0.18 mg/dL
same,GLUCOSE,[1],173.83 mg/dL
same,LACTATE DEHYDROGENASE,[1],188.33 u/L
same,LIPASE,[1],9.5 u/L
same,PHOSPHORUS,[1],11.95 mg/dL
same,POTASSIUM,[1],5.99 MEQ/L
same,SODIUM,[1],144.43 MEQ/L
same,TOTAL BILIRUBIN,[1],0.15 mg/dL
same,TOTAL PROTEIN,[1],5.95 G/DL
same,URIC ACID,[1],1.82 mg/dL
same,ABSOLUTE BASOPHIL,[2],0 CELLS/uL
same,ABSOLUTE EOSINOPHIL,[2],26.67 CELLS/uL
same,ABSOLUTE LYMPHOCYTE,[2],7583.83 CELLS/uL
same,ABSOLUTE MONOCYTE,[2],131.33 CELLS/uL
same,ABSOLUTE SEGMENTED NEUTROPHIL,[2],674.83 CELLS/uL
same,BASOPHIL,[2],0%
same,EOSINOPHIL,[2],0.33%
same,ERYTHROCYTE COUNT,[2],5.78 x10E6/uL
same,HEMATOCRIT,[2],36.48%
same,HEMOGLOBIN,[2],14.03 G/DL
same,LEUKOCYTE COUNT,[2],8.42 x10E3/uL
same,LYMPHOCYTE,[2],89.83%
same,MEAN CORPUSCULAR HEMOGLOBIN,[2],24.3 pg
same,MEAN CORPUSCULAR HEMOGLOBIN CONCENTRATION,[2],38.52 G/DL
same,MEAN CORPUSCULAR VOLUME,[2],63.15 fL
same,MONOCYTE,[2],1.67%
same,NEUTROPHIL,[2],8.17%
same,NUCLEATED RED BLOOD CELLS,[2],0 /100WBC
same,PLATELET COUNT,[2],1186.67 x10E3/uL
same,ALANINE AMINOTRANSFERASE,[2],50.17 u/L
same,ALBUMIN,[2],4.07 G/DL
same,ALKALINE PHOSPHATASE,[2],367.5 u/L
same,ASPARTATE AMINOTRANSFERASE,[2],81.67 u/L
same,BLOOD UREA NITROGEN,[2],16.17 mg/dL
same,CARBON DIOXIDE,[2],32.33 mmol/L
same,CHLORIDE,[2],101.5 MEQ/L
same,CHOLESTEROL,[2],65.33 mg/dL
same,CREATINE PHOSPHOKINASE,[2],255.33 u/L
same,CREATININE,[2],0.17 mg/dL
same,GLUCOSE,[2],139.33 mg/dL
same,LACTATE DEHYDROGENASE,[2],95 u/L
same,LIPASE,[2],10.5 u/L
same,PHOSPHORUS,[2],10.38 mg/dL
same,POTASSIUM,[2],6.11 MEQ/L
same,SODIUM,[2],145.55 MEQ/L
same,TOTAL BILIRUBIN,[2],0.17 mg/dL
same,TOTAL PROTEIN,[2],5.98 G/DL
same,URIC ACID,[2],0.93 mg/dL
same,ABSOLUTE BASOPHIL,[3],0 CELLS/uL
same,ABSOLUTE EOSINOPHIL,[3],102.33 CELLS/uL
same,ABSOLUTE LYMPHOCYTE,[3],13682.67 CELLS/uL
same,ABSOLUTE MONOCYTE,[3],170.33 CELLS/uL
same,ABSOLUTE SEGMENTED NEUTROPHIL,[3],1778 CELLS/uL
same,BASOPHIL,[3],0%
same,EOSINOPHIL,[3],0.67%
same,ERYTHROCYTE COUNT,[3],5.57 x10E6/uL
same,HEMATOCRIT,[3],35.2%
same,HEMOGLOBIN,[3],13.87 G/DL
same,LEUKOCYTE COUNT,[3],15.73 x10E3/uL
same,LYMPHOCYTE,[3],86.67%
same,MEAN CORPUSCULAR HEMOGLOBIN,[3],24.87 pg
same,MEAN CORPUSCULAR HEMOGLOBIN CONCENTRATION,[3],39.37 G/DL
same,MEAN CORPUSCULAR VOLUME,[3],63.2 fL
same,MONOCYTE,[3],1%
same,NEUTROPHIL,[3],11.67%
same,NUCLEATED RED BLOOD CELLS,[3],0 /100WBC
same,PLATELET COUNT,[3],1237 x10E3/uL
same,ALANINE AMINOTRANSFERASE,[3],53 u/L
same,ALBUMIN,[3],3.97 G/DL
same,ALKALINE PHOSPHATASE,[3],363.67 u/L
same,ASPARTATE AMINOTRANSFERASE,[3],98.67 u/L
same,BLOOD UREA NITROGEN,[3],15.33 mg/dL
same,CARBON DIOXIDE,[3],23.33 mmol/L
same,CHLORIDE,[3],103.33 MEQ/L
same,CHOLESTEROL,[3],70.67 mg/dL
same,CREATINE PHOSPHOKINASE,[3],579.33 u/L
same,CREATININE,[3],0.13 mg/dL
same,GLUCOSE,[3],155.67 mg/dL
same,LACTATE DEHYDROGENASE,[3],507.67 u/L
same,LIPASE,[3],9 u/L
same,PHOSPHORUS,[3],12.8 mg/dL
same,POTASSIUM,[3],5.78 MEQ/L
same,SODIUM,[3],143.9 MEQ/L
same,TOTAL BILIRUBIN,[3],0.2 mg/dL
same,TOTAL PROTEIN,[3],5.67 G/DL
same,URIC ACID,[3],1.83 mg/dL
same,ABSOLUTE BASOPHIL,[4],0 CELLS/uL
same,ABSOLUTE EOSINOPHIL,[4],47.67 CELLS/uL
same,ABSOLUTE LYMPHOCYTE,[4],10405 CELLS/uL
same,ABSOLUTE MONOCYTE,[4],114.67 CELLS/uL
same,ABSOLUTE SEGMENTED NEUTROPHIL,[4],899.33 CELLS/uL
same,BASOPHIL,[4],0%
same,EOSINOPHIL,[4],0.33%
same,ERYTHROCYTE COUNT,[4],6.07 x10E6/uL
same,HEMATOCRIT,[4],37.63%
same,HEMOGLOBIN,[4],14.23 G/DL
same,LEUKOCYTE COUNT,[4],11.47 x10E3/uL
same,LYMPHOCYTE,[4],90%
same,MEAN CORPUSCULAR HEMOGLOBIN,[4],23.5 pg
same,MEAN CORPUSCULAR HEMOGLOBIN CONCENTRATION,[4],37.87 G/DL
same,MEAN CORPUSCULAR VOLUME,[4],62.07 fL
same,MONOCYTE,[4],1%
same,NEUTROPHIL,[4],8.67%
same,NUCLEATED RED BLOOD CELLS,[4],0 /100WBC
same,PLATELET COUNT,[4],1244.67 x10E3/uL
same,ALANINE AMINOTRANSFERASE,[4],54.33 u/L
same,ALBUMIN,[4],4.27 G/DL
same,ALKALINE PHOSPHATASE,[4],299.67 u/L
same,ASPARTATE AMINOTRANSFERASE,[4],84.33 u/L
same,BLOOD UREA NITROGEN,[4],16 mg/dL
same,CARBON DIOXIDE,[4],30.67 mmol/L
same,CHLORIDE,[4],102 MEQ/L
same,CHOLESTEROL,[4],59.67 mg/dL
same,CREATINE PHOSPHOKINASE,[4],401 u/L
same,CREATININE,[4],0.22 mg/dL
same,GLUCOSE,[4],139.33 mg/dL
same,LACTATE DEHYDROGENASE,[4],140 u/L
same,LIPASE,[4],10 u/L
same,PHOSPHORUS,[4],10.83 mg/dL
